Data as given in patent publication US20090118310A1, “Activated Cdc42-associated kinase (ACK) as a therapeutic target for Ras-induced cancer” (UNIVERSITY OF MEDICINE AND DENTISTRY OF NEW JERSEY, priority 2005, published 2009).
“Also recorded” adds a separate entry of the source.

What was measured:
[1] = test system: v-Ha-Ras-transformed NIH 3T3 cells; test: Growth of v-Ha-Ras-transformed cells treated with kinase inhibitors (cell counting); format: cell-based; details: kinase inhibitor added after overnight culture; cells counted (every 24 hours or after 48 hours)
Method: To study the effects of ACK on cell proliferation, 2×10^4 cells per well were seeded into 24-well plates and cultured under standard cell culture conditions. After overnight culture, individual kinase inhibitors (at indicated concentration) or DMSO (control) were added to the culture. Cells were collected by trypsinization after 48 hours. Cell numbers were counted with a hemocytometer. To study ACK phosphorylation, cells were lysed with a buffer containing 1% Triton X-100, 20 mmol/L HEPES (pH 7.4), 150 mmol/L NaCl, 10% glycerol, 1.5 mmol/L MgCl2, 1 mmol/L EGTA, 10 mmol/L sodium pyrophosphate, 0.2 mmol/L sodium orthovanadate, 50 mmol/L NaF, 0.5 mg/mL phenylmethylsulfonyl fluoride, and 0.5 μg/mL aprotinin. Total protein (˜1 mg) was used for immunoprecipitation of ACK-1.
The effect of PD158780 and PD157432 on the phosphorylation of ACK-1 was investigated. v-Ha-Ras-transformed cells were cultured in DMEM containing 10% FCS. Cells were treated with solvent (DMSO), PD 158780 (25 μmol/L), or PD157432 (25 μmol/L) for 48 hours. Cells were incubated under standard cell culture conditions. […] For growth inhibition studies, cells were trypsinized and counted every 24 hours. […]
The effect of ST021169 and ST038325 on v-Ha-Ras-transformed NIH 3T3 cell growth was investigated. […] After 48 hours, the cells were trypsinized and counted with a hemocytometer. […]

[2] = biological target: T1, ACK-1 kinase (GST-ACKD, amino acids 101-441) (Homo sapiens, UniProt Q07912); test: In vitro kinase assay of GST-ACKD with MBP as substrate; format: biochemical; details: FIG. 4C dose response, FIG. 4D inhibitors at 200 nmol/L
T1 construct: made in house; host or cells: Escherichia coli BL21 (pGEX-2TH vector)
T1 sequence (Q07912 38-378 H250G): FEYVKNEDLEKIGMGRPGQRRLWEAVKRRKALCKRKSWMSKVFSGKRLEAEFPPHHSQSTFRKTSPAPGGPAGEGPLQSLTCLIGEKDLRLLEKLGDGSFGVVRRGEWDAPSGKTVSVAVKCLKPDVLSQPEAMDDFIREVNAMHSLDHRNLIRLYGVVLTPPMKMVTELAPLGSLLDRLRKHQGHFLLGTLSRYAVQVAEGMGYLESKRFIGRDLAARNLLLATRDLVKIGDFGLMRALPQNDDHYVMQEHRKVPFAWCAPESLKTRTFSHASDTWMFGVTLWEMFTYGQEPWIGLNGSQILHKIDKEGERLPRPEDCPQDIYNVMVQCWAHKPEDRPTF
Method: Escherichia coli BL21 cells transformed with pGEX-ACKD were grown at 30° C. to early logarithmic phase and protein expression was induced by adding 0.1 mmol/L isopropyl-L-thio-β-D-galactopyranoside. After 3 hours of incubation, cells were harvested, resuspended in lysis buffer [50 mmol/L Tris (pH 7.5), 0.73 mol/L sucrose, 5 mmol/L MgCl2, 0.5% (v/v) NP40], and disrupted by sonication. Cells were centrifuged at 10,000×g for 30 minutes at 4° C. The supernatant was applied to the glutathione-Sepharose column equilibrated with WED buffer [20 mmol/L Tris (pH 7.5), 2 mmol/L MgCl2, 1 mmol/L DTT] followed by washing with WED buffer. GST-ACKD was eluted with 5 mmol/L glutathione solution in 50 mmol/L Tris (pH 9.6). The eluate was dialyzed in WED buffer overnight and concentrated on a sucrose gradient. The expected size of the fusion protein (GST-ACKD) was confirmed by SDS-PAGE (data not shown), and the protein was used for kinase assays as described below.
The purified GST-ACKD (˜5 μg per reaction) was incubated in kinase reaction buffer [50 mmol/L HEPES-KOH (pH 7.2), 10 mmol/L magnesium acetate, 5 mmol/L DTT] containing 7.5 μg MBP, 100 μmol/L ATP, and 4 μCi [γ-^33P]ATP for 10 minutes at 30° C. Reactions were stopped by addition of 5× Laemmli SDS sample buffer. Proteins were separated by SDS-PAGE, and radioactivity incorporated into the substrate was quantified by using the Kodak Imaging Station 2000R. For kinase inhibition experiments, GST-ACKD was preincubated with individual inhibitors in kinase buffer or kinase buffer alone (control) before the addition of MBP following the same protocol as described above. Experiments were done in triplicate.
Several compounds were screened to examine their potency in inhibiting the kinase activity of ACK in vitro. […]
Different kinase inhibitors were added to the ACK-1 kinase reaction as described above in General Procedures. Phosphorylation of MBP was determined by SDS-PAGE and autoradiography. The level of MBP phosphorylation was determined by scanning MBP bands using Kodak Imaging Station 2000R and plotted as arbitrary units. […]

ACK-1 = biological target: T2, ACK-1 (Mus musculus, UniProt O54967); test: ACK-1 autophosphorylation in v-Ha-Ras-transformed cells (immunoprecipitation, anti-phosphotyrosine Western blot); format: cell-based; details: 25 μmol/L, 48 hours, FIG. 5A
T2 construct: endogenous in cells; host or cells: v-Ha-Ras-transformed NIH 3T3 cells (and parental NIH 3T3 in the siRNA experiment)
T2 sequence (O54967 whole entry): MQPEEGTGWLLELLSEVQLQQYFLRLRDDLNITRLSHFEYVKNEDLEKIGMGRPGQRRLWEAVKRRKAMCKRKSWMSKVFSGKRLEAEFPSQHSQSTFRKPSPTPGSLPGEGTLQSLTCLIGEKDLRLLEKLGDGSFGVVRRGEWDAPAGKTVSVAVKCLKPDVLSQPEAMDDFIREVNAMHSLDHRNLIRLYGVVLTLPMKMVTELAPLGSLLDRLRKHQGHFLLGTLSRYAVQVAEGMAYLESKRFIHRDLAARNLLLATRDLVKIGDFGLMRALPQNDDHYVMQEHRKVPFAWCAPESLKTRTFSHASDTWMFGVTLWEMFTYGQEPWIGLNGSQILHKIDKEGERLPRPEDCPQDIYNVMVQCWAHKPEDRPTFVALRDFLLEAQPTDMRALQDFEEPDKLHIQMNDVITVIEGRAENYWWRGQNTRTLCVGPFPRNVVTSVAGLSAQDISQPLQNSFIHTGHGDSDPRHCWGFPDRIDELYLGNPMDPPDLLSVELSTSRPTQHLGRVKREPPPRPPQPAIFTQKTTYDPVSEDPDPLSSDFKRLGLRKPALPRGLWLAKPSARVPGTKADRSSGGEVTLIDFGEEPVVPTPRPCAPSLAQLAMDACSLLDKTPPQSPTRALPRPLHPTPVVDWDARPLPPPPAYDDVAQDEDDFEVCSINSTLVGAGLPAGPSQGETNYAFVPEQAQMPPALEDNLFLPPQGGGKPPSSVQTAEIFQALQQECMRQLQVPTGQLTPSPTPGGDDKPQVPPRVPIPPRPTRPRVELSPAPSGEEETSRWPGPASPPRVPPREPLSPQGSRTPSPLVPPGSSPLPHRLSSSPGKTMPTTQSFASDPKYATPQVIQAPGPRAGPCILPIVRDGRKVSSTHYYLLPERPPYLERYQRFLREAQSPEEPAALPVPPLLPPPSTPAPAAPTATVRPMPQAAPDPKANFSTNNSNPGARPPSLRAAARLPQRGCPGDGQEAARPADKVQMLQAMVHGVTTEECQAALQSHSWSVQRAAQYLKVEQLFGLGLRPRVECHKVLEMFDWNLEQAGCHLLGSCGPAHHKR
Method: For immunoprecipitation, cells (2×10^6 per sample) were lysed in a buffer containing 1% Triton X-100, 20 mmol/L HEPES (pH 7.4), 150 mmol/L NaCl, 10% glycerol, 1.5 mmol/L MgCl2, 1 mmol/L EGTA, 10 mmol/L sodium pyrophosphate, 0.2 mmol/L sodium orthovanadate, 50 mmol/L NaF, 0.5 mg/mL phenylmethylsulfonyl fluoride, and 0.5 μg/mL aprotinin. Each lysate was incubated with ACK-1 antibody (10 μg/sample) for 4 hours at 4° C. Protein A-Sepharose CL-4B (50 μL) was added to the lysate followed by additional incubation for 2 hours at 4° C. Sepharose beads were collected by centrifugation at 1,000×g for 5 minutes (Eppendorf microfuge). The pellets were washed thrice with lysis buffer using the same protocol. Protein bound to Sepharose beads was recovered in Laemmli SDS sample buffer. […]
To study the effects of ACK on cell proliferation, 2×10^4 cells per well were seeded into 24-well plates and cultured under standard cell culture conditions. […] Cell numbers were counted with a hemocytometer. […]
The effect of PD158780 and PD157432 on the phosphorylation of ACK-1 was investigated. v-Ha-Ras-transformed cells were cultured in DMEM containing 10% FCS. […] For growth inhibition studies, cells were trypsinized and counted every 24 hours. […]

CNc1cc2c(Nc3cccc(Br)c3)ncnc2cn1 [PD158780]
inhibition of v-Ha-Ras-transformed NIH 3T3 cell growth [1]: inhibited in a dose-dependent manner | inhibition of kinase activity of ACK (MBP phosphorylation) [2]: inhibited ACK strongly and in a dose-dependent manner; also recorded: strongest inhibitory activity | inhibition of ACK-1 autophosphorylation (ACK-1): inhibited ACK-1 autophosphorylation to a much stronger extent than did PD157432
